Measurements reported in patent US20050227961A1, “Compositions and methods for treatment of neuropathic pain, fibromyalgia and chronic fatigue syndrome” (Vela Pharmaceuticals, Inc., priority 2004, published 2005).

Tested on: lesioned hindpaw of rats suffering from neuropathic pain
Assay: Neuropathic pain, thermal stimulation model in the rat (Chung spinal nerve ligature), paw withdrawal latency
Conditions: for Paw Withdrawal Latent (seconds) for Lesioned Paw, mean ± SEM / Paw withdrawal latency, % change compared with vehicle control: thermal stimulation

SMILES: CN1CC[C@]23c4c5ccc(O)c4O[C@H]2[C@@H](O)C=C[C@H]3[C@H]1C5 [Morphine]
- Paw Withdrawal Latent (seconds) for Lesioned Paw, mean ± SEM (128 mg/kg p.o., at 30 min): 23.5 ± 6.4 s
- Paw withdrawal latency, % change compared with vehicle control (128 mg/kg p.o., at 30 min): +104%
- Paw Withdrawal Latent (seconds) for Lesioned Paw, mean ± SEM (128 mg/kg p.o., at 1 h): 40.5 ± 3.0 s
- Paw withdrawal latency, % change compared with vehicle control (128 mg/kg p.o., at 1 h): +185%
- Paw Withdrawal Latent (seconds) for Lesioned Paw, mean ± SEM (128 mg/kg p.o., at 2 h): 16.7 ± 6.0 s
- Paw withdrawal latency, % change compared with vehicle control (128 mg/kg p.o., at 2 h): −7%
- Paw Withdrawal Latent (seconds) for Lesioned Paw, mean ± SEM (128 mg/kg p.o., at 4 h): 21.7 ± 5.7 s
- Paw withdrawal latency, % change compared with vehicle control (128 mg/kg p.o., at 4 h): +10%

SMILES: CN1c2ccccc2C(NCCCCCCC(=O)O)c2ccc(Cl)cc2S1(=O)=O (stereo not drawn) [Tianeptine, 7-[(3-chloro-6,11-dihydro-6-methyl-dibenzo[c,f][1,2]thiazepin-11-yl)amino]heptanoic acid S,S-dioxide]
- Paw Withdrawal Latent (seconds) for Lesioned Paw, mean ± SEM (3 mg/kg p.o., at 30 min): 12.7 ± 4.9 s
- Paw withdrawal latency, % change compared with vehicle control (3 mg/kg p.o., at 30 min): +10%
- Paw Withdrawal Latent (seconds) for Lesioned Paw, mean ± SEM (3 mg/kg p.o., at 1 h): 20.3 ± 5.3 s
- Paw withdrawal latency, % change compared with vehicle control (3 mg/kg p.o., at 1 h): +43%
- Paw Withdrawal Latent (seconds) for Lesioned Paw, mean ± SEM (3 mg/kg p.o., at 2 h): 20.6 ± 6.3 s
- Paw withdrawal latency, % change compared with vehicle control (3 mg/kg p.o., at 2 h): +15%
- Paw Withdrawal Latent (seconds) for Lesioned Paw, mean ± SEM (3 mg/kg p.o., at 4 h): 13.8 ± 4.4 s
- Paw withdrawal latency, % change compared with vehicle control (3 mg/kg p.o., at 4 h): −30%
- Paw Withdrawal Latent (seconds) for Lesioned Paw, mean ± SEM (10 mg/kg p.o., at 30 min): 19.2 ± 6.0 s
- Paw withdrawal latency, % change compared with vehicle control (10 mg/kg p.o., at 30 min): +67%
- Paw Withdrawal Latent (seconds) for Lesioned Paw, mean ± SEM (10 mg/kg p.o., at 1 h): 15.1 ± 4.5 s
- Paw withdrawal latency, % change compared with vehicle control (10 mg/kg p.o., at 1 h): +6%
- Paw Withdrawal Latent (seconds) for Lesioned Paw, mean ± SEM (10 mg/kg p.o., at 2 h): 16.1 ± 5.1 s
- Paw withdrawal latency, % change compared with vehicle control (10 mg/kg p.o., at 2 h): −10%
- Paw Withdrawal Latent (seconds) for Lesioned Paw, mean ± SEM (10 mg/kg p.o., at 4 h): 26.1 ± 5.4 s
- Paw withdrawal latency, % change compared with vehicle control (10 mg/kg p.o., at 4 h): +32%
- Paw Withdrawal Latent (seconds) for Lesioned Paw, mean ± SEM (30 mg/kg p.o., at 30 min): 33.3 ± 5.5 s
- Paw withdrawal latency, % change compared with vehicle control (30 mg/kg p.o., at 30 min): +190%
- Paw Withdrawal Latent (seconds) for Lesioned Paw, mean ± SEM (30 mg/kg p.o., at 1 h): 29.0 ± 7.3 s
- Paw withdrawal latency, % change compared with vehicle control (30 mg/kg p.o., at 1 h): +104%
- Paw Withdrawal Latent (seconds) for Lesioned Paw, mean ± SEM (30 mg/kg p.o., at 2 h): 16.9 ± 5.0 s
- Paw withdrawal latency, % change compared with vehicle control (30 mg/kg p.o., at 2 h): −6%
- Paw Withdrawal Latent (seconds) for Lesioned Paw, mean ± SEM (30 mg/kg p.o., at 4 h): 19.3 ± 5.8 s
- Paw withdrawal latency, % change compared with vehicle control (30 mg/kg p.o., at 4 h): −2%
- paw withdrawal latency after thermal stimulation in the lesioned paw (result in words) (30 mg/kg, at 30 minutes): significant increase
